# In the supplement of paper PMC10307832:
# Compound: CC(C)(C)c1cc(NC(=O)Nc2ccc(-c3cn4c(n3)sc3cc(OCCN5CCOCC5)ccc34)cc2)no1 [Quizartinib] + Cc1nc(Nc2ncc(C(=O)Nc3c(C)cccc3Cl)s2)cc(N2CCN(CCO)CC2)n1 [Dasatinib] (partner 0.075 µM)
# Test: relative viability (nuclei count vs DMSO), 5 days (fraction); higher = more cells survive
# Conditions: first compound 0.001 µM
# Summary of the method: (§1)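 Relative viability equals treated-well nuclei counts divided by vehicle-well nuclei counts. Counts came from 4× images of lung cancer cell lines grown in 1536-well plates for 5 days after pin-tool dosing on the day after seeding. Dosing used one drug alone or a fixed anchor-drug dose plus five library-drug doses (not always all listed) in √10 steps, and values are medians of duplicate plates.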
row,Cell Line,relative viability
1,SK-LU-1,0.178
2,NCI-H2170,0.721
3,SW 900,0.557
4,NCI-H661,0.756
5,NCI-H358,0.136
6,CAL-12T,0.382
7,LK-2,0.31
8,HOP-62,0.564
9,PC-14,0.262
10,NCI-H1993,0.636
11,NCI-H2405,0.266
12,NCI-H3122,0.92
13,NCI-H2342,0.31
14,LOU-NH91,0.574
15,NCI-H596,0.658
16,NCI-H1666,0.836
17,NCI-H838,0.272
18,NCI-H322M,0.208
19,NCI-H1793,0.357
20,NCI-H441,0.617
21,SW 1573,0.417
22,201T,0.588
23,NCI-H1755,0.389

# Same assay, conditions: first compound 0.003162 µM
row,Cell Line,relative viability
1,ABC-1,0.572
2,NCI-H1734,0.421
3,COR-L 105,0.408
4,HCC-15,0.58
5,HARA,0.231
6,NCI-H1975,0.305
7,NCI-H1944,0.217
8,NCI-H2126,0.603
9,EMC-BAC-2,0.299
10,SK-LU-1,0.169
11,NCI-H2170,0.422
12,SW 900,0.294
13,NCI-H661,0.896
14,NCI-H358,0.188
15,CAL-12T,0.489
16,HOP-62,0.589
17,PC-14,0.238

row,Cell Line,relative viability
1,NCI-H1993,0.478
2,NCI-H2405,0.198
3,NCI-H3122,0.565
4,A-427,0.718
5,NCI-H2342,0.314
6,LOU-NH91,0.615
7,NCI-H596,0.546
8,NCI-H1666,0.782
9,NCI-H23,0.733
10,NCI-H838,0.329
11,NCI-H322M,0.255
12,NCI-H1793,0.381
13,NCI-H441,0.571
14,NCI-H727,0.377
15,SW 1573,0.481
16,201T,0.563
17,NCI-H1755,0.367

# Same assay, conditions: first compound 0.01 µM
row,Cell Line,relative viability
1,ABC-1,0.661
2,NCI-H1734,0.431
3,COR-L 105,0.413
4,HCC-15,0.594
5,HARA,0.252
6,NCI-H1975,0.367
7,NCI-H1944,0.204
8,NCI-H2126,0.655
9,EMC-BAC-2,0.294
10,SK-LU-1,0.204
11,NCI-H2170,0.591
12,NCI-H661,1.09
13,NCI-H358,0.164
14,CAL-12T,0.535
15,LK-2,0.313
16,HOP-62,0.638
17,PC-14,0.321

row,Cell Line,relative viability
1,NCI-H1993,0.58
2,NCI-H2405,0.216
3,NCI-H3122,1
4,A-427,0.706
5,NCI-H2342,0.308
6,LOU-NH91,0.553
7,NCI-H596,0.578
8,NCI-H1666,0.737
9,NCI-H23,0.696
10,NCI-H838,0.276
11,NCI-H322M,0.27
12,NCI-H1793,0.356
13,NCI-H441,0.765
14,NCI-H727,0.411
15,SW 1573,0.561
16,201T,0.621
17,NCI-H1755,0.409

# Same assay, conditions: first compound 0.03162 µM
row,Cell Line,relative viability
1,NCI-H1734,0.481
2,COR-L 105,0.381
3,HARA,0.215
4,NCI-H1975,0.297
5,NCI-H1944,0.199
6,SK-LU-1,0.183
7,NCI-H2170,0.625
8,SW 900,0.563
9,NCI-H661,0.837
10,NCI-H358,0.167
11,CAL-12T,0.388
12,LK-2,0.205
13,HOP-62,0.652
14,NCI-H1993,0.644
15,NCI-H2405,0.202
16,NCI-H3122,0.721
17,A-427,0.657
18,NCI-H2342,0.285
19,LOU-NH91,0.524
20,NCI-H596,0.592
21,NCI-H1666,0.582
22,NCI-H23,0.712
23,NCI-H838,0.296
24,NCI-H322M,0.265
25,NCI-H1793,0.392
26,NCI-H727,0.322
27,201T,0.574
28,NCI-H1755,0.429

# Same assay, conditions: first compound 0.1 µM
row,Cell Line,relative viability
1,ABC-1,0.502
2,NCI-H1734,0.453
3,COR-L 105,0.283
4,HCC-15,0.6
5,HARA,0.268
6,NCI-H1975,0.325
7,NCI-H1944,0.224
8,NCI-H2126,0.625
9,EMC-BAC-2,0.375
10,SK-LU-1,0.232
11,NCI-H2170,0.497
12,SW 900,0.616
13,NCI-H661,0.887
14,NCI-H358,0.144
15,CAL-12T,0.328
16,LK-2,0.284
17,HOP-62,0.662
18,PC-14,0.254

row,Cell Line,relative viability
1,NCI-H1993,0.662
2,NCI-H2405,0.244
3,NCI-H3122,0.838
4,A-427,0.663
5,NCI-H2342,0.316
6,LOU-NH91,0.62
7,NCI-H596,0.495
8,NCI-H1666,0.757
9,NCI-H23,0.853
10,NCI-H838,0.257
11,NCI-H322M,0.266
12,NCI-H1793,0.327
13,NCI-H441,0.771
14,NCI-H727,0.318
15,SW 1573,0.76
16,201T,0.57
17,NCI-H1755,0.404

# Compound: CC(C)(C)c1cc(NC(=O)Nc2ccc(-c3cn4c(n3)sc3cc(OCCN5CCOCC5)ccc34)cc2)no1 [Quizartinib] + CCNC(=O)c1noc(-c2cc(C(C)C)c(O)cc2O)c1-c1ccc(CN2CCOCC2)cc1 [Luminespib] (partner 0.01 µM)
# Test: as above
# Conditions: first compound 0.001 µM
# Summary of the method: as §1
row,Cell Line,relative viability
1,ABC-1,0.67
2,NCI-H1734,0.16
3,COR-L 105,0.579
4,NCI-H1975,0.166
